Measured values from patent publication EP0511759A1, “Biotoxicity test for chemicals” (THE STANDARD OIL COMPANY, priority 1991, dated 1992).

System: Anthophysa vegetans protozoa
Assay: Protozoan feeding-behaviour bioassay: turbidity (absorbance at 540 nm) of live bacterial feed remaining
Type: cell-based
Method: The first step of the inventive process comprises adding protozoa and feed into test and control samples which contain inorganic buffers. The chemical substance whose toxic activity is being investigated is then added to the test samples but not to the control samples. The order of adding protozoa, feed and chemical substance is not critical. The amount of protozoa added is usually about at or below 1 x 10⁶ per ml. If dead bacteria are used as feed, they are added at sufficient concentrations to increase the turbidity of the medium to at least 0.3 at 540 nm in a 1.0 cm pathlength tube; this corresponds to concentration of about 2.5 x 10⁹ bacteria per ml. If live bacteria are added as feed, the inoculum level is about 0.01 to about 1% of a fully grown bacterial culture in the range of about 1 x 10⁶ to about 1 x 10⁸ bacteria per ml. […] A sample containing live bacteria is supplemented with a carbon source to support bacterial growth. The carbon sources are generally used at a final concentration of about 0.05%.
This reduction in turbidity generally takes about 1 to about 5 days. If the feed employs live bacteria, there is an initial increase in the turbidity. This increase is then followed by a decrease in turbidity in the control tubes as stated above. If the test chemical is not toxic to the protozoa, the turbidity decreases in the sample tube. If the test chemical is toxic to the protozoa, the turbidity will remain essentially unchanged. The size and volume of the resulting mixture are not critical, provided there is sufficient volume to permit either visual or spectrophotometrical observations of the change in turbidity of the microbial cultures. Typically, about 3 ml to about 5 ml samples were used.
Protozoa, Anthophysa vegetans at about 1 x 10⁵ per ml and a mixed bacteria population of soil bacteria containing but not limited to Alcaligenis and Psuedomonas at about 1 x 10⁶ per ml were inoculated into a growth medium as described above in "Culturing and Test Procedures". The bacteria multiplied in numbers and caused an initial increase in the turbidity (absorbance) of the growth medium, generally from about 0.03 to about 0.4, as measured at 540 nm in a 1.0 cm pathlength tube. After about one day of incubation, the bacterial growth ceased due to the limitation of carbon source. […] The protozoa preyed on the bacteria, leading to a reduction in bacterial cell concentration, indicated by a reduction of turbidity. This growth sequence is illustrated in Line A of Figure 2. If the bacterial cultures were grown without added protozoa, a similar increase in turbidity took place. However, there was no significant reduction in turbidity after the growth phase was completed. This is illustrated in Line B of Figure 2.
Anthophysa vegetans protozoa and live mixed population of soil bacteria containing but not limited to Psuedomonas and Alcaligenis were inoculated into a growth medium as described under "Culturing and Test Procedures". The test chemical, a phenol ethoxylate surfactant, Igepal CO 850 (GAF Chemicals Corp.), was added at different concentrations. A control without added surfactant was maintained. […] However, at about 0 and about 10 ppm surfactant, the absorbance decreased on further incubation. […] The tolerance level of the protozoa, (i.e., the concentration level at which feeding inhibition is first observed) is about 100 ppm Igepal CO 850. […] The protozoa preyed on the bacteria, resulting in reduced absorbance at 540 nm after two days incubation. […]

With `O=[N+]([O-])c1ccc(O)cc1` [4-nitrophenol] the LC₅₀ (Protozoa Inocula Level 0.0001X) was 0.46 ppm, the LC₅₀ (Protozoa Inocula Level 0.001X) was 5.6 ppm and the LC₅₀ (Protozoa Inocula Level 0.01X) was 12.5 ppm. It also gave an LC₅₀ (Protozoa Inocula Level 0.1X) of 19.5 ppm and an LC₅₀ (Protozoa Inocula Level 1.0X) of 36 ppm.
